How the values were obtained:
[1] = NCT03131687: weight loss at Week 26; format: in vivo, human
Procedure: Clinical Study (NCT03131687) Supporting Maintenance Dose Embodiments A 6-month (26-week) Phase 2 double-blind clinical study is designed to evaluate the safety, efficacy, and PK/PD of 4 dose levels (1 mg, 5 mg, 10 mg and 15 mg respectively) of tirzepatide once weekly by subcutaneous injection compared with dulaglutide 1.5 mg. once weekly (QW) and placebo QW in patients with T2DM who have inadequate glycemic control with diet and exercise with or without a stable dose of metformin. Tirzepatide dose is up-titrated to the maintenance dose using the following weekly dose increments:
The study also has a 4-week follow up period. In addition to safety and efficacy for treating T2DM, efficacy endpoints include the effect of tirzepatide on HbA1c, FBG, body weight, lipids, and waist circumference compared with placebo and with dulaglutide 1.5 mg. The study also evaluates the effect of tirzepatide on GI tolerability, hypoglycemia, hypersensitivity reactions, and pancreatic safety, as well as the development of treatment-emergent anti-drug antibodies. Model-based dose response analyses are performed to predict potential for significant HbA1c lowering and weight loss in longer studies. Statistical Analyses: Efficacy: The primary efficacy outcome of HbA1c change from baseline to the 26-week endpoint is analyzed using a Bayesian dose-response model. Analyses are performed on the intention to treat population (mITT) analysis set. Supportive analysis of the primary efficacy outcome for the mITT dataset are the model for post-baseline measures (MMRM) with body mass index (BMI) (<30 kg/m^2, ≥30 kg/m^2), metformin use, treatment, visit, and treatment-by-visit interaction as fixed effects, baseline HbA1c as a covariate, and patient as a random effect. The mean weight change from baseline at 12 and 26 weeks, along with the mean change from baseline of HbA1c at 12 weeks, is analyzed using similar dose-response models as the primary analyses. The percentages of patients with ≥5% or ≥10% body weight loss, reaching the HbA1c target of ≤6.5% or ≤7.0% at 26 weeks, or requiring rescue therapy are analyzed using logistic regression with fixed effects of treatment and strata, and baseline as a covariate. The changes from baseline in FBG (fasting blood glucose), SMBG (self-monitored blood glucose) levels, waist circumference, and mean percentage change in lipids from baseline to 12 and 26 weeks are analyzed using a similar MMRM to the one used for the primary analyses. Table Abbreviations: Dula 1.5 mg=dulaglutide 1.5 mg once weekly; LY means tirzepatide, and LY 1 mg=tirzepatide 1 mg once weekly; LY 5 mg=5 mg once weekly; LY 10 mg=escalation dose group tirzepatide once weekly with highest dose of 10 mg; LY 15 mg=escalation dose group of tirzepatide once weekly with highest dose 15 mg; LOCF=last observation-carried-forward; N=number of patients; pbo=placebo; Week 26=mITT on-treatment data at Week 26 excluding data after study drug discontinuation or rescue drug initiation; mITT=modified intent-to-treat; SD=standard deviation. For Table 4, n=number of patients in the population with baseline and post-baseline value at the specified time point. For Table 6, LY10 mg=escalation dose group tirzepatide, once weekly with highest dose of 10 mg; escalation dose: (5 mg weeks 0 and 1), LY15 mg=escalation dose group tirzepatide, once weekly with highest dose of 15 mg; escalation dose: (5 mg weeks 0 and 1; 10 mg weeks 2 to 5); N=number of patients in specified group, m=number of patients who experienced new event during interval, FolUp=follow up, T/Wk=Time range, (week) and %=means percent patients spending at least some time in treatment group who experienced new event during interval. For Table 7, n is the number of patients with events meeting the criteria; N is number of patients in the population; % is percent of patients in treatment group experiencing the event.

[2] = NCT03311724: weight loss at Week 12; format: in vivo, human
From the text: This is a 12-week treatment with a 1 week screening (Visit 1) followed by a 1 week lead-in (Visit 2), then 12 weeks of treatment (Visits 3-10, including telephone visits), then followed by 4-week safety follow-up. It is a Phase 2 study designed to examine the efficacy and tolerability of subcutaneously once-weekly tirzepatide compared with placebo in patients with type 2 diabetes who have inadequate glycemic control with diet and exercise alone or with a stable dose of metformin. The study was designed per below and conducted to refine the escalation scheme.

[3] = LY 1 mg = tirzepatide 1 mg once weekly, LOCF
[4] = LY 1 mg = tirzepatide 1 mg once weekly, second line, analysis set not given (not LOCF)
[5] = LY 5 mg = tirzepatide 5 mg once weekly, LOCF
[6] = LY 5 mg = tirzepatide 5 mg once weekly, second line, analysis set not given (not LOCF)
[7] = LY 10 mg = tirzepatide once weekly, highest dose 10 mg, LOCF
[8] = LY 10 mg = tirzepatide once weekly, highest dose 10 mg, second line, analysis set not given (not LOCF)
[9] = LY 15 mg = tirzepatide once weekly, highest dose 15 mg, LOCF
[10] = LY 15 mg = tirzepatide once weekly, highest dose 15 mg, second line, analysis set not given (not LOCF)
[11] = LY 12 mg Group 3 (tirzepatide 4 mg × 4, 8 mg × 4, 12 mg × 4 once weekly), LOCF Week 12 (N = 27)
[12] = LY 12 mg Group 3 (tirzepatide 4 mg × 4, 8 mg × 4, 12 mg × 4 once weekly), Week 12 mITT on-treatment (N = 27)
[13] = LY 15 mg-Group 1 (tirzepatide 2.5 mg × 2, 5 mg × 2, 10 mg × 4, 15 mg × 4 once weekly), LOCF Week 12 (N = 27)
[14] = LY 15 mg-Group 1 (tirzepatide 2.5 mg × 2, 5 mg × 2, 10 mg × 4, 15 mg × 4 once weekly), Week 12 mITT on-treatment (N = 23)
[15] = LY 15 mg-Group 2 (tirzepatide 2.5 mg × 4, 7.5 mg × 4, 15 mg × 4 once weekly), LOCF Week 12 (N = 27)
[16] = LY 15 mg-Group 2 (tirzepatide 2.5 mg × 4, 7.5 mg × 4, 15 mg × 4 once weekly), Week 12 mITT on-treatment (N = 26)

tirzepatide [LY]
body weight change from baseline (in words) ([1]; 5 mg, 10 mg, and 15 mg doses of tirzepatide, significantly different from placebo and dulaglutide 1.5 mg): significantly decrease body weight from baseline | % of Patients Achieving Weight loss ≥10% [1, 3]: 5.8% | odds ratio vs. placebo, Weight loss ≥10% [1, 3]: 7.1 | % of Patients Achieving Weight loss ≥10% [1, 4]: 6.8% | % of Patients Achieving Weight loss ≥15% [1, 4]: 0% | odds ratio vs. placebo, Weight loss ≥10% [1, 4]: 6.7 | % of Patients Achieving Weight loss ≥10% [1, 5]: 16.4% | odds ratio vs. placebo, Weight loss ≥10% [1, 5]: 20.8 | % of Patients Achieving Weight loss ≥10% [1, 6]: 16.7% | % of Patients Achieving Weight loss ≥15% [1, 6]: 6.3% | odds ratio vs. placebo, Weight loss ≥10% [1, 6]: 17.2 | % of Patients Achieving Weight loss ≥10% [1, 7]: 39.2% | odds ratio vs. placebo, Weight loss ≥10% [1, 7]: 67.6 | % of Patients Achieving Weight loss ≥10% [1, 8]: 45.5% | % of Patients Achieving Weight loss ≥15% [1, 8]: 25.0% | odds ratio vs. placebo, Weight loss ≥10% [1, 8]: 71.7 | % of Patients Achieving Weight loss ≥10% [1, 9]: 37.7% | odds ratio vs. placebo, Weight loss ≥10% [1, 9]: 66.2 | % of Patients Achieving Weight loss ≥10% [1, 10]: 54.3% | % of Patients Achieving Weight loss ≥15% [1, 10]: 34.3% | odds ratio vs. placebo, Weight loss ≥10% [1, 10]: 109.2 | body weight vs placebo (in words) ([2]; 12 mg and 15 mg tirzepatide doses, at 12 weeks): significant reductions in body weight compared with placebo | % of Patients Achieving Weight loss ≥5% [2, 11]: 63.0% | % of Patients Achieving Weight loss ≥10% [2, 11]: 18.5% | odds ratio vs. placebo, Weight loss ≥5% [2, 11]: 22.7 | odds ratio vs. placebo, Weight loss ≥10% [2, 11]: 10.4 | % of Patients Achieving Weight loss ≥5% [2, 12]: 63.0% | % of Patients Achieving Weight loss ≥10% [2, 12]: 18.5% | odds ratio vs. placebo, Weight loss ≥5% [2, 12]: 20.7 | odds ratio vs. placebo, Weight loss ≥10% [2, 12]: 9.3 | % of Patients Achieving Weight loss ≥5% [2, 13]: 59.3% | % of Patients Achieving Weight loss ≥10% [2, 13]: 14.8% | odds ratio vs. placebo, Weight loss ≥5% [2, 13]: 20.5 | odds ratio vs. placebo, Weight loss ≥10% [2, 13]: 8.0 | % of Patients Achieving Weight loss ≥5% [2, 14]: 56.5% | % of Patients Achieving Weight loss ≥10% [2, 14]: 13.0% | odds ratio vs. placebo, Weight loss ≥5% [2, 14]: 17.1 | odds ratio vs. placebo, Weight loss ≥10% [2, 14]: 6.2 | % of Patients Achieving Weight loss ≥5% [2, 15]: 55.6% | % of Patients Achieving Weight loss ≥10% [2, 15]: 18.5% | odds ratio vs. placebo, Weight loss ≥5% [2, 15]: 17.6 | odds ratio vs. placebo, Weight loss ≥10% [2, 15]: 10.6 | % of Patients Achieving Weight loss ≥5% [2, 16]: 57.7% | % of Patients Achieving Weight loss ≥10% [2, 16]: 19.2% | odds ratio vs. placebo, Weight loss ≥5% [2, 16]: 17.4 | odds ratio vs. placebo, Weight loss ≥10% [2, 16]: 9.7

From patent publication US12616740B2, “Methods of using a GIP/GLP1 co-agonist for therapy” (ELI LILLY AND COMPANY, priority 2018, dated 2026)
